From patent US20250213707A1, “COMPOUND FOR INCREASING EFFICACY OF ONCOLYTIC VIRUSES” (ABLEVIA BIOTECH GMBH, priority 2022, published 2025)
Ends that are not written are not given here.

How the values were obtained:
[1] = test system: IgG from human donors (anti-AAV antibodies); assay: Screen for anti-AAV antibodies in human sera based on cyclic 14-amino-acid AAV peptides on microarrays (Table 2); assay type: binding; set-up: key: X: the deduplicated aggregate of the respective top 50 peptide hits for each donor was compiled and designated as group I; conditions: human donor IgG; circularized AAV peptides; top 50 peptide hits for each donor
Description: More than 1200 cyclic peptides derived from the sequences of human and rhesus monkey AAV sequences and artificial AAV sequences according to Table 2 and with a sequence length of 14 amino-acids each were synthesized.
Samples obtained from human donors were screened for antibodies against these AAV-derived peptides immobilized on microarrays. To this end, IgG was prepared from blood obtained from the human donors by protein G purification. Each IgG sample was incubated with the peptide microarrays and Ig binding signals were detected by fluorescence. All antibody binding signals to the peptides on the arrays were background subtracted and ranked for each sample and a deduplicated aggregate of the respective top 250 peptide hits for each donor with the corresponding protein sequence of origin (as obtained from UniProt or other sources) was compiled (designated as group II). Further, the deduplicated aggregate of the respective top 50 peptide hits for each donor was compiled and designated as group I.
Altogether, group I contains 47 distinct peptide hits (assigned to the corresponding AAV vectors in Table 2) and group II yielded 172 distinct peptide hits. Evidently, group I is a subset of group II.

[2] = test system: polyclonal antibody ab6982; assay: Epitope mapping of polyclonal antibody ab6982 against cyclic peptides of Ad5 fiber and hexon (peptide array); assay type: binding, rabbits; conditions: cyclic peptides of fiber protein (clusters 1-7)
[3] = test system: IgG from human donors (anti-AAV antibodies); assay: Screen for anti-AAV antibodies in human sera, 2452 linear 15-amino-acid AAV peptides on microarrays (Table 1); assay type: binding; set-up: key to group I: X: the deduplicated aggregate of the respective top 10 peptide hits for each donor was compiled and designated as group I; key to group II: X: the deduplicated aggregate of the respective top 25 peptide hits for each donor was compiled and designated as group II; key to group III: X: the deduplicated aggregate of the respective top 50 peptide hits for each donor was compiled and designated as group III; conditions: human donor IgG binding to linear 15-amino-acid AAV peptides on microarray, fluorescence; for group II: membership in deduplicated aggregate of top 25 peptide hits for each donor; for group III: membership in deduplicated aggregate of top 50 peptide hits for each donor; for group I: membership in deduplicated aggregate of top 10 peptide hits for each donor
In short: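 Peptide hits were grouped I to IV by pooling each donor's top 10, 25, 50 or 250 background-corrected fluorescence signals, after deduplication. Signals came from donor IgG, purified on protein G, bound to arrayed 15-residue linear peptides (2452 total) spanning 16 AAV sequences.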

Substance | group I [1] | antibody binding signal ranking from the microarray experiment [2] | group II [3] | group III [3] | group I [3]
1929 (TESVPDPQPIGEPP; REGION 1..14: note = peptide derived from viral capsid protein) [compound 1929] | X |  |  |  | 
1893 (DTNGVYSEPRPIGT; REGION 1..14: note = peptide derived from viral capsid protein) [compound 1893] | X |  |  |  | 
1926 (DKAYDRQLDSGDNP; REGION 1..14: note = peptide derived from viral capsid protein) [compound 1926] | X |  |  |  | 
1924 (YDQQLKAGDNPYLK; REGION 1..14: note = peptide derived from viral capsid protein) [compound 1924] | X |  |  |  | 
1914 (SFITQYSTGQVSVE; REGION 1..14: note = peptide derived from viral capsid protein) [compound 1914] | X |  |  |  | 
KNTPVPADPPTTFN (REGION 1..14: note = peptide derived from viral capsid protein) [SEQ ID NO: 2011] |  | 076 | X | X | 
RDTDMFGQIADNNQ [SEQ ID NO: 2037] |  | 073 | X | X | 
SDSEYQLPYVLGSA [SEQ ID NO: 2050] |  | 197 | X | X | 
RDWQRLINNNWGLR [SEQ ID NO: 2038] |  | 082 | X | X | 
EEEIKATNPVATER [SEQ ID NO: 2045] |  | 148 | X | X | 
TTSGTTNQSRLLFS (REGION 1..14: note = peptide derived from viral capsid protein) [SEQ ID NO: 1997] |  | 041 | X | X | X
DIYYQGPIWAKIPH (REGION 1..14: note = peptide derived from viral capsid protein) [SEQ ID NO: 2040] |  | 102 | X | X | 
TVQVFTDSDYQLPY [SEQ ID NO: 2019] |  | 013 | X | X | 
DIYYQGPIWAKVPH [SEQ ID NO: 2030] |  | 030 | X | X | 
QTGDADSVPDPQPL (not fully specified) [SEQ ID NO: 2008] |  | 056 | X | X | 
GQTGESESVPDPQP [SEQ ID NO: 2059] |  | 095 | X | X | 
PVPANPPTTFSPAK [SEQ ID NO: 1992] |  | 010 | X | X | X
VMITDEEEIRTTNP (REGION 1..14: note = peptide derived from viral capsid protein) [SEQ ID NO: 1998] |  | 052 | X | X | X
NEADAAALEHDKAY (REGION 1..14: note = peptide derived from viral capsid protein) [SEQ ID NO: 2004] |  | 163 | X | X | 
EEEIKTTNPVATES (REGION 1..14: note = peptide derived from viral capsid protein) [SEQ ID NO: 2014] |  | 123 | X | X | 
RVSKTKTDNNNSNF [SEQ ID NO: 2049] |  | 178 | X | X | 

Substance | group I [1] | antibody binding signal ranking from the microarray experiment [2] | group II [3] | group III [3] | group I [3]
KKRILEPLGLVEEG [SEQ ID NO: 2034] |  | 066 | X | X | 
EFAWPGASSWALNG (REGION 1..14: note = peptide derived from viral capsid protein) [SEQ ID NO: 2015] |  | 126 | X | X | 
GGQMATNNQSLALG [SEQ ID NO: 2021] |  | 020 | X | X | 
ADPPTTFNQAKLAS [SEQ ID NO: 2009] |  | 060 | X | X | 
MNPGPAMASHKEGE [SEQ ID NO: 2017] |  | 011 | X | X | 
FEKVPFHSMYAHSQ (REGION 1..14: note = peptide derived from viral capsid protein) [SEQ ID NO: 2031] |  | 058 | X | X | 
SKTANDNNNSNFPW (REGION 1..14: note = peptide derived from viral capsid protein) [SEQ ID NO: 1995] |  | 035 | X | X | X
LFNIQVKEVTTNDG (REGION 1..14: note = peptide derived from viral capsid protein) [SEQ ID NO: 2047] |  | 172 | X | X | 
PVPADPPTTFNQSK (REGION 1..14: note = peptide derived from viral capsid protein) [SEQ ID NO: 2027] |  | 047 | X | X | 
ADPPTTFNQSKLNS [SEQ ID NO: 2024] |  | 032 | X | X | 
TTSANNLLFTSEEE [SEQ ID NO: 2056] |  | 078 | X | X | 
QSSNTAPTTRTVND (REGION 1..14: note = peptide derived from viral capsid protein) [SEQ ID NO: 1994] |  | 024 | X | X | X
SNYNKSVNVDFTVD (REGION 1..14: note = peptide derived from viral capsid protein) [SEQ ID NO: 1996] |  | 040 | X | X | X
QVKEVTTNDGVTTI (REGION 1..14: note = peptide derived from viral capsid protein) [SEQ ID NO: 2048] |  | 173 | X | X | 
ANPGIAMATHKDDE [SEQ ID NO: 2060] |  | 100 | X | X | 
PEPADVFMIPQYGY [SEQ ID NO: 2029] |  | 029 | X | X | 
TVQIFADSSYELPY (REGION 1..14: note = peptide derived from viral capsid protein) [SEQ ID NO: 2043] |  | 136 | X | X | 
NNFQFSYTFEDVPF (REGION 1..14: note = peptide derived from viral capsid protein) [SEQ ID NO: 1990] |  | 003 | X | X | X
HKDDEEKFFPQSGV (REGION 1..14: note = peptide derived from viral capsid protein) [SEQ ID NO: 2002] |  | 150 | X | X | 
PVPADPPTAFNKDK (REGION 1..14: note = peptide derived from viral capsid protein) [SEQ ID NO: 2018] |  | 012 | X | X | 
MVPQYGYCGVVTGK [SEQ ID NO: 2035] |  | 070 | X | X | 
